Data reported in patent US20110178053A1, “AZACARBOLINE DERIVATIVES, PREPARATION METHOD THEREOF AND THERAPEUTIC USE OF SAME” (SANOFI-AVENTIS, priority 2008, published 2011).
pIC50: −log10 of the molar value.

Assays:
Assay type in all cases: biochemical
Pim-1 = target: T1, Pim-1 (Homo sapiens, UniProt P11309); assay: TR-FRET assay, Pim-1 kinase (phosphorylation of Bad Ser112); conditions: TR-FRET; ATP 40 μM; read-out: IC50 Pim1
T1 construct: His6-labelled recombinant full-length human Pim-1, Pim-2 or Pim-3 protein; His6; made in house
Protocol: (§1) In order to determine the inhibition of activation of Pim kinases, the compounds of the invention are tested in accordance with a routinely used in vitro TR-FRET assay (Time-Resolved Fluorescence Resonance Energy Transfer). […] For the assay, the following reagents are used:
(§2) Pim kinase—His6-labelled recombinant full-length human Pim-1, Pim-2 or Pim-3 protein (prepared according to J. Mol. Biol. (2005) 348, 183-193); Bad—His6-labelled recombinant full-length human Bad protein (prepared according to J. Mol. Biol. (2005) 348, 183-193); α-His6-APC—murine monoclonal antibody conjugated to allophycocyanin SureLight™ directed against the His6 label (Perkin-Elmer, No. AD0059H, Waltham, Mass., United States); • β-P˜Bad-Eu—murine monoclonal antibody (Cell Signaling Technology #9296B, Danvers, Mass., United States) directed against phosphoBad (Ser112) (7E11) custom-labelled by Perkin-Elmer with the reagent LANCE™ Eu-W1024.
(§3) The assay is based on Perkin-Elmer's LANCE™ technology: the Eu-labelled antibody binds to phospho-Ser112 and generates a TR-FRET signal by interaction with the APC-labelled antibody directed against His6, bound to the His6 label of Bad. The TR-FRET signal is detected using a SpectraMax M5 plate reader (Molecular Devices) with the following settings: λex=340 nm, λem1=615 nm, λem2=665 nm. The ratio of the fluorescence signal at 665 nm to the fluorescence signal at 615 nm is used as the signal reading for the IC50 (calculation is based on the 4-parameter logistic model). The assay is performed in a 384-well format; the liquid manipulations are performed using a Beckman 3000 liquid manipulations station. The test compounds are tested at 10 concentration points in duplicate; the highest compound concentration is typically equal to 30 μM. The ATP concentration is equal to 40 μM, which is equivalent to the apparent KM value.

Pim-2 = target: T2, Pim-2 (Homo sapiens, UniProt Q9P1W9); assay: TR-FRET assay, Pim-2 kinase (phosphorylation of Bad Ser112); conditions: TR-FRET; ATP 40 μM; read-out: IC50 Pim2
T2 construct: His6-labelled recombinant full-length human Pim-1, Pim-2 or Pim-3 protein; His6; made in house
Protocol: as §1, §2, §3

Pim-3 = target: T3, Pim-3 (Homo sapiens, UniProt Q86V86); assay: TR-FRET assay, Pim-3 kinase (phosphorylation of Bad Ser112); conditions: TR-FRET; ATP 40 μM; read-out: IC50 Pim3
T3 construct: His6-labelled recombinant full-length human Pim-1, Pim-2 or Pim-3 protein; His6; made in house
Protocol: as §1, §2, §3

T1 sequence (P11309 whole entry): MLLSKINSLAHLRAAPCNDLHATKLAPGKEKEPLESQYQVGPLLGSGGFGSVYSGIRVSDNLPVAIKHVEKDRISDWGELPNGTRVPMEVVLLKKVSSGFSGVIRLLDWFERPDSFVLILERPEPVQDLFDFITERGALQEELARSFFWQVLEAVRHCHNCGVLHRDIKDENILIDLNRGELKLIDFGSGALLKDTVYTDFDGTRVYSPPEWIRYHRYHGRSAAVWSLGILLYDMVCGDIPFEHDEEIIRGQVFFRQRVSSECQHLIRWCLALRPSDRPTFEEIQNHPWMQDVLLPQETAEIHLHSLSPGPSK
T2 sequence (Q9P1W9 whole entry): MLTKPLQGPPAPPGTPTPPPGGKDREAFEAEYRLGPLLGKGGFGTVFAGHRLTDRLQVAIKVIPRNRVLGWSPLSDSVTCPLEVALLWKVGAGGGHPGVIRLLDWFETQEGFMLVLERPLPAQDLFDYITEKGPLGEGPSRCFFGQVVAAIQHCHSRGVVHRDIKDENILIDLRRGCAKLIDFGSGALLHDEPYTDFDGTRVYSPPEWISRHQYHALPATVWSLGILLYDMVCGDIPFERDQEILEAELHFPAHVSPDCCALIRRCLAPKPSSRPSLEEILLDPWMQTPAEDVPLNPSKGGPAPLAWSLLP

Row | SMILES | pIC50 (Pim-1) | pIC50 (Pim-2) | pIC50 (Pim-3)
1 | Cc1cscc1-c1c(F)cnc2[nH]c3cnc(-c4cccnc4)cc3c12 [Example 57, 3-fluoro-4-(4-methyl-thiophen-3-yl)-6-(pyrid-3-yl)-9H-pyrrolo[2,3-b:5,4-c′]-dipyridine] | 5.30 to 6.00 | 5.30 to 6.00 | 6.00 to 7.00
2 | CN(C)c1cccc(-c2c(F)cnc3[nH]c4cnc(-c5cccnc5)cc4c23)c1 [Example 58, 3-[3-fluoro-6-(pyrid-3-yl)-9H-pyrrolo[2,3-b:5,4-c′]dipyrid-4-yl]-N,N-dimethylaniline] | 5.30 to 6.00 | < 5.30 | 5.30 to 6.00
3 | Cn1ccc2cc(-c3c(F)cnc4[nH]c5cnc(-c6cccnc6)cc5c34)ccc21 [Example 59, 3-fluoro-4-(1-methyl-1H-indol-5-yl)-6-(pyrid-3-yl)-9H-pyrrolo[2,3-b:5,4-c′]-dipyridine] | 7.00 to 9.00 | < 5.30 | 6.00 to 7.00
4 | Cn1cc(-c2c(F)cnc3[nH]c4cnc(-c5cccnc5)cc4c23)cn1 [Example 60, 3-fluoro-4-(1-methyl-1H-pyrazol-4-yl)-6-(pyrid-3-yl)-9H-pyrrolo[2,3-b:5,4-c′]-dipyridine] | 7.00 to 9.00 | 5.30 to 6.00 | 6.00 to 7.00
5 | CC(=O)NCc1ccc(-c2c(F)cnc3[nH]c4cnc(-c5cccnc5)cc4c23)cc1 [Example 61, N-{4-[3-fluoro-6-(pyrid-3-yl)-9H-pyrrolo[2,3-b:5,4-c′]-dipyrid-4-y]benzyl}-acetamide] | 7.00 to 9.00 | 5.30 to 6.00 | 7.00 to 9.00
6 | CCOc1ncccc1-c1c(F)cnc2[nH]c3cnc(-c4cccnc4)cc3c12 [Example 64, 4-(2-ethoxypyrid-3-yl)-3-fluoro-6-(pyrid-3-yl)-9H-pyrrolo[2,3-b:5,4-c′]dipyridine] | 6.00 to 7.00 | < 5.30 | 5.30 to 6.00
7 | O=C(O)CCC(=O)Nc1cccc(-c2c(F)cnc3[nH]c4cnc(-c5cccnc5)cc4c23)c1 [Example 65, acide 4-({3-[3-fluoro-6-(pyrid-3-yl)-9H-pyrrolo[2,3-b:5,4-c′]-dipyrid-4-yl]-phenyl}amino)-4-oxobutanoic acid] | 6.00 to 7.00 | < 5.30 | 5.30 to 6.00
8 | Cn1nccc1-c1c(F)cnc2[nH]c3cnc(-c4cccnc4)cc3c12 [Example 67, 3-fluoro-4-(1-methyl-1H-pyrazol-5-yl)-6-(pyrid-3-yl)-9H-pyrrolo[2,3-b:5,4-c']-dipyridine] | 5.30 to 6.00 | < 5.30 | 5.30 to 6.00
9 | CC(C)C(=O)Nc1ccc(-c2c(F)cnc3[nH]c4cnc(-c5cccnc5)cc4c23)cc1 [Example 68, N-{4-[3-fluoro-6-(pyrid-3-yl)-9H-pyrrolo[2,3-b:5,4-c']-dipyrid-4-yl]phenyl}-2-methylpropanamide] | 7.00 to 9.00 | 5.30 to 6.00 | 6.00 to 7.00
10 | Fc1cnc2[nH]c3cnc(-c4cccnc4)cc3c2c1-c1cccnc1 [Example 69, 3-fluoro-4,6-di(pyrid-3-yl)-9H-pyrrolo[2,3-b:5,4-c′]dipyridine] | 6.00 to 7.00 | < 5.30 | 6.00 to 7.00
11 | CS(=O)(=O)Nc1ccccc1-c1c(F)cnc2[nH]c3cnc(-c4cccnc4)cc3c12 [Example 70, N-{2-[3-fluoro-6-(pyrid-3-yl)-9H-pyrrolo[2,3-b:5,4-c′]-dipyrid-4-yl]phenyl}-methanesulfonamide] | 5.30 to 6.00 | < 5.30 | < 5.30
12 | Fc1cnc2[nH]c3cnc(-c4cccnc4)cc3c2c1-c1cn[nH]c1 [Example 71, 3-fluoro-4-(1H-pyrazol-4-yl)-6-(pyrid-3-yl)-9H-pyrrolo[2,3-b:5,4-c′]-dipyridine] | 7.00 to 9.00 | 6.00 to 7.00 | 6.00 to 7.00
13 | CS(=O)(=O)c1cccc(-c2c(F)cnc3[nH]c4cnc(-c5cccnc5)cc4c23)c1 [Example 72, 3-fluoro-4-[3-(methylsulfonyl)phenyl]-6-(pyrid-3-yl)-9H-pyrrolo[2,3-b:5,4-c′]dipyridine] | 6.00 to 7.00 | < 5.30 | 5.30 to 6.00
